Assay results: patent US11826399B2, “Chlorotoxin agents and uses thereof” (Eisai Inc., priority 2017, dated 2023)

Tested on: PC-3 human prostate cancer cells
Assay: Co-administration of Cryptophycin Payload with CTX or iRGD in subcutaneous PC-3 xenograft model
Assay type: in vivo, mouse
Details: iRGD + Cryptophycin Payload 0.2 mg/kg (data not shown)

iRGD: tumor-penetrating peptide iRGD (CRGDK/RGPD/EC) (SEQ ID NO: 202)
Effect of co-administration on tumor re-growth versus Cryptophycin Payload alone: re-growth of tumors was not shown to be significantly different
